The IC50 is the concentration that gives 50% inhibition.

Several values for one entry are separate records, joined by “and”; a condition that tells them apart may be missing. Identical values can stand only once. Activity calls are given as the source filed them.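 Rule for the calls: active = IC50 no higher than ten times the top tested dose; inconclusive = flat fit with 30 to 70% inhibition, or poor fit; inactive = IC50 above ten times the top dose.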

Tested on in one experiment: not listed separately
As to the kind of experiment: growth modulation of Clostridium difficile isolate – OD600, 9-point, retest, dose response (AID 1224920).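 For activity change, negative = inhibition: plate controls were DMSO for no effect and levofloxacin control for full effect.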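 Note: inhibitors lower culture turbidity so OD600 falls.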 The conditions noted are these: Clostridium difficile clinical isolate growth, OD600, 24 h; at 30 µM (top of the series).
In the case of `COc1cccc(-c2ccc3c(c2)[C@@H]2[C@@H](CCN2Cc2ccccc2OC)[C@@H](CO)N3)c1`, the activity change, negative = inhibition was -7.43% (inactive).

Still in this experiment, the particulars now being: Clostridium difficile clinical isolate growth, OD600, 24 h; at 60 µM (top of the series).
For the molecule `O=C(NC[C@H]1N[C@H](CO)[C@@H]1c1ccc(C2=CCCC2)cc1)C1CCCCC1`, the activity change, negative = inhibition is 36.2% (inactive).

As for `CN(C)CC(=O)N1C[C@@H]2N[C@H](C1)C2c1ccc(/C=C/c2ccccc2)cc1` (stereo partly specified), the activity change, negative = inhibition was 46.6% (inactive).

For the molecule `O=C(Nc1ccc(F)cc1)N1CCCCN2[C@H](CO)[C@@H](c3ccc(-c4ccccc4F)cc3)[C@@H]2C1`, the activity change, negative = inhibition is 53.6% (inactive).

Turning to `COc1ccccc1-c1ccc2c(c1)[C@@H]1[C@@H](CCN1C(=O)C1CCOCC1)[C@@H](CO)N2`, the activity change, negative = inhibition is 39.1% (inactive).

As to `CCCNC(=O)N1CC[C@H]2[C@@H]1c1cc(C#Cc3ccccc3)ccc1N(C)[C@H]2CO`, the activity change, negative = inhibition was 49.3% (inactive).

On to `C/C=C/c1ccc(C2[C@@H]3CN(S(=O)(=O)c4ccc(F)cc4)C[C@H]2N3)cc1` (stereo partly specified), for which the activity change, negative = inhibition was 42.1% (inactive).

`O=C(NC[C@H]1N[C@H](CO)[C@@H]1c1ccc(C2=CCCCC2)cc1)C1CCCC1`: the activity change, negative = inhibition was 38.1% (inactive).

For the molecule `C/C=C/c1ccc(C2[C@@H]3CN(Cc4cccc(OC)c4)C[C@H]2N3)cc1` (stereo partly specified), the activity change, negative = inhibition was 20.9% (inactive).

Regarding `C[C@H]1CN([C@@H](C)CO)C(=O)c2cccc(NC(=O)c3nc4ccccc4s3)c2O[C@H]1CN(C)S(=O)(=O)c1ccc(F)cc1`, the activity change, negative = inhibition is 0.765% (inactive).

As to `O=C(C1CCCC1)N1C[C@@H]2N[C@H](C1)C2c1ccc(-c2cccc(F)c2)cc1` (stereo partly specified), the activity change, negative = inhibition was 46.7% (inactive).

The same experiment, now with this note: Clostridium difficile clinical isolate growth, OD600, 24 h; at 68 µM (top of the series).
Consider `N#Cc1cccc(-c2ccc(C3[C@H]4CNC[C@@H]3N4C(=O)Nc3ccc(F)cc3)cc2)c1` (stereo partly specified), for which the activity change, negative = inhibition is 21.6% (inactive).

On to `C/C=C/c1ccc(C2[C@@H]3CN(C(=O)Nc4ccc(F)cc4)C[C@H]2N3)cc1` (stereo partly specified), for which the activity change, negative = inhibition was 49.5% (inactive).

As to `COc1ccc(-c2ccccc2[C@@H]2[C@@H](C#N)N(C(=O)NC3CCCC3)[C@H]2CO)cc1`, the activity change, negative = inhibition was -5% (inactive).

`COc1ccccc1-c1ccc(C2[C@@H]3CN(Cc4nccs4)C[C@H]2N3)cc1` (stereo partly specified): the activity change, negative = inhibition was 37.9% (inactive).

Staying with this experiment, now noted: Clostridium difficile clinical isolate growth, OD600, 24 h; at 120 µM (top of the series).
Take `O=C(Nc1cccc(F)c1)N1CCCCN2[C@H](CO)[C@@H](c3ccc(-c4ccccc4F)cc3)[C@@H]2C1`: the activity change, negative = inhibition was 39.6% (inactive).

In the case of `C[C@@H]1CN([C@@H](C)CO)C(=O)Cc2cc(NS(=O)(=O)c3ccccc3)ccc2O[C@@H]1CN(C)Cc1ccc(Oc2ccccc2)cc1`, the activity change, negative = inhibition was 39.5% (inactive).

For the molecule `CN1c2ccc(-c3cccc(F)c3)cc2[C@H]2[C@H](CCN2C(=O)C2CCCC2)[C@H]1CO`, the activity change, negative = inhibition is 40.6% (inactive).

For the molecule `CN1[C@@H]2c3ccc(/C=C/c4ccccc4)c(=O)n3C[C@H]1[C@H](CO)[C@H]2C(=O)NC1CCCC1`, the activity change, negative = inhibition is 4.99% (inactive).

As for `Cc1ccccc1-c1ccc([C@@H]2[C@@H](CO)N3CCCCN(S(=O)(=O)c4ccc(F)cc4)C[C@H]23)cc1`, the activity change, negative = inhibition is -1.33% (inactive).

For `CC(=O)N(C)C[C@H]1[C@H](c2ccc(-c3ccccc3F)cc2)[C@H](CO)N1C(C)=O`, the activity change, negative = inhibition was -3.85% (inactive).

With `N#C[C@@H]1[C@@H](c2ccccc2-c2cccc(F)c2)[C@H](CO)N1C(=O)NC1CCCC1`, the activity change, negative = inhibition is 10.6% (inactive).

Consider `CCc1nc(N2[C@H](C#N)[C@@H](c3ccccc3-c3ccccc3F)[C@@H]2CO)sc1C`, for which the activity change, negative = inhibition is 57.6% (inactive).

On to `COc1ccc2c3c([nH]c2c1)[C@H](CO)N(C(=O)c1ccccc1)CC31CN(C(=O)Nc2cccc(F)c2)C1`, for which the activity change, negative = inhibition was 39% (inactive).

As for `CN1c2ccc(Br)cc2[C@@H]2[C@@H](CCN2C(=O)Nc2ccc(F)cc2)[C@H]1CO`, the activity change, negative = inhibition is 127% (inactive).

As to `O=S(=O)(c1cccc(F)c1)N1CC[C@@H]2[C@@H](CO)Nc3ccc(-c4cccc(F)c4)cc3[C@@H]21`, the activity change, negative = inhibition is 45.7% (inactive).

For `COc1ccc(-c2ccccc2[C@@H]2[C@@H](C#N)N(C(=O)NC3CCCCC3)[C@H]2CO)cc1`, the activity change, negative = inhibition is 9.48% (inactive).

Staying with this experiment, now noted: Clostridium difficile clinical isolate growth, OD600, 24 h; at 135 µM (top of the series).
In the case of `Cc1ccc(-c2ccc([C@@H]3[C@@H](CO)N4CCCCN(C(=O)Nc5cccc(F)c5)C[C@@H]34)cc2)cc1`, the activity change, negative = inhibition was 15.8% (inactive).

In the case of `C/C=C/c1ccc([C@H]2[C@@H](CNC(=O)c3ccccn3)N(C(C)=O)[C@H]2CO)cc1`, the activity change, negative = inhibition is -7.58% (inactive).

For the molecule `O=C(Cc1ccccc1)N1CC[C@H]2[C@H](CO)Nc3ccc(C4=CCCCC4)cc3[C@H]21`, the activity change, negative = inhibition is 25.9% (inactive).

Take `C/C=C/c1ccc([C@H]2[C@@H](CO)N(C(=O)CC)[C@H]2CNC(=O)CC)cc1`: the activity change, negative = inhibition was -4.24% (inactive).

On to `COc1ccc2c3c(n(C)c2c1)[C@H](CO)N(C(=O)Nc1ccc(F)cc1)CC31CCN(C(=O)CN2CCOCC2)CC1`, for which the activity change, negative = inhibition is -1.31% (inactive).

For the molecule `C/C=C/c1ccc([C@H]2[C@H](CO)N(C(=O)CC)[C@H]2CNC(=O)CC)cc1`, the activity change, negative = inhibition is -9.32% (inactive).

For the molecule `CC(=O)NC[C@H]1[C@@H](c2ccc(-c3cccc(F)c3)cc2)[C@@H](CO)N1C(C)=O`, the activity change, negative = inhibition is -7.05% (inactive).

Consider `C/C=C/c1ccc([C@H]2[C@@H](CO)N(C(=O)CC)[C@@H]2CNC(=O)CC)cc1`, for which the activity change, negative = inhibition is -8.82% (inactive).

Another experiment relates to Clostridium difficile clinical isolate growth, OD600, 24 h. Described as above.
Details: not given
Take `OC[C@@H]1Nc2ccc(-c3ccc(F)cc3)cc2[C@@H]2[C@H]1CCN2Cc1ccc(F)cc1`: the IC50 is 82.4 µM.

On to `C[C@@H]1CN([C@@H](C)CO)C(=O)c2cccc(NC(=O)Nc3ccc(C(F)(F)F)cc3)c2O[C@H]1CN(C)C(=O)Nc1ccc(C(F)(F)F)cc1`, for which the IC50 is 22.2 µM.

`Cc1ccc(-c2ccc([C@H]3[C@H](CO)N4CCCCN(C(=O)Nc5cccc(F)c5)C[C@@H]34)cc2)cc1`: the IC50 was 11.2 µM.

Turning to `COc1ccc(C#Cc2ccc([C@@H]3[C@H]4CN(Cc5ccccc5F)CCCCN4[C@H]3CO)cc2)cc1`, the IC50 was 13.7 µM.

Consider `Cc1cccc(-c2ccc(C3[C@@H]4CN(C(=O)Nc5ccc(C(F)(F)F)cc5)C[C@H]3N4)cc2)c1` (stereo partly specified), for which the IC50 is 2.73 µM and 2.52 µM.

`O=S(=O)(c1ccccc1)N1C[C@@H]2N[C@H](C1)C2c1ccc(-c2ccc(F)cc2)cc1` (stereo partly specified): the IC50 is 51.4 µM.

In the case of `C(=C\c1ccc(C2[C@@H]3CN(Cc4nccs4)C[C@H]2N3)cc1)/c1ccccc1` (stereo partly specified), the IC50 was 16.7 µM and 67.5 µM.

On to `O=C(Nc1ccccc1)N1CCCCN2[C@@H](CO)[C@@H](c3ccc(-c4ccccc4F)cc3)[C@@H]2C1`, for which the IC50 is 27.9 µM.

Consider `OC[C@H]1Nc2ccc(-c3ccc(F)cc3)cc2[C@H]2[C@@H]1CCN2Cc1ccc(F)cc1`, for which the IC50 was 44.3 µM.

For `O=C(Nc1ccc(Cl)cc1)N1[C@@H]2CNC[C@H]1C2c1ccc(-c2ccccc2)cc1` (stereo partly specified), the IC50 is 60.4 µM.

As for `COc1cccc(-c2ccc(C3[C@@H]4CN(S(=O)(=O)c5cccc(OC)c5)C[C@H]3N4)cc2)c1` (stereo partly specified), the IC50 is 24.4 µM.

As for `Cc1ccc(-c2ccc([C@@H]3[C@@H](CO)N4CCCCN(S(=O)(=O)c5cccc(C)c5)C[C@H]34)cc2)cc1`, the IC50 is 10.7 µM.

For the molecule `O=C(c1ccc(F)cc1)N1C[C@@H]2N[C@H](C1)C2c1ccc(/C=C/c2ccccc2)cc1` (stereo partly specified), the IC50 was 13 µM.

As for `COc1ccc(-c2ccc(C3[C@@H]4CN(S(=O)(=O)c5ccccc5C)C[C@H]3N4)cc2)cc1` (stereo partly specified), the IC50 is 21.9 µM.

In the case of `Cc1cccc(-c2ccc([C@@H]3[C@@H]4CN(C(=O)CN(C)C)C[C@H]3N4)cc2)c1`, the IC50 was 61.5 µM.

Consider `O=C(c1ccc2c(c1)OCO2)N1C[C@@H]2N[C@H](C1)C2c1ccc(/C=C/c2ccccc2)cc1` (stereo partly specified), for which the IC50 was 12.4 µM.

On to `O=S(=O)(Cc1ccccc1)N1CCCCN2[C@@H](CO)[C@@H](c3ccc(-c4ccc(F)cc4)cc3)[C@@H]2C1`, for which the IC50 is 38 µM.

For `COc1ccc(S(=O)(=O)N2CCCCN3[C@H](CO)[C@H](c4ccc(C5=CCCCC5)cc4)[C@H]3C2)cc1`, the IC50 is 29.5 µM.

`COc1ccc(-c2ccc(C3[C@@H]4CN(Cc5ccccn5)C[C@H]3N4)cc2)cc1` (stereo partly specified): the IC50 is 70.1 µM.

For the molecule `O=C(C[C@H]1CC[C@@H]2[C@H](COC[C@H](O)CN2C(=O)Nc2ccc(Cl)c(Cl)c2)O1)NC1CCC1`, the IC50 was 8.25 µM.

Turning to `Cc1ccccc1-c1ccc(C2[C@@H]3CN(S(=O)(=O)Cc4ccccc4)C[C@H]2N3)cc1` (stereo partly specified), the IC50 was 33.8 µM.

In the case of `COc1ccc(-c2ccc(C3[C@H]4CNC[C@@H]3N4Cc3cc(OC)cc(OC)c3)cc2)cc1` (stereo partly specified), the IC50 is 11.1 µM.

With `CC(C)CC#Cc1ccc([C@@H]2[C@@H](CO)N3CCCCN(C(=O)Nc4ccccc4)C[C@H]23)cc1`, the IC50 is 10.9 µM.

`O=C(Nc1cccc(F)c1)N1C[C@@H]2N[C@H](C1)C2c1ccc(-c2ccc(F)cc2)cc1` (stereo partly specified): the IC50 is 51.8 µM.

`O=C(Nc1ccccc1)N1C[C@@H]2N[C@H](C1)C2c1ccc(-c2ccccc2F)cc1` (stereo partly specified): the IC50 is 52.3 µM.

For the molecule `OC[C@H]1[C@@H](c2ccc(C#CC3CCCC3)cc2)[C@H]2CN(CCC(F)(F)F)CCCCN21`, the IC50 was 9.49 µM.

Regarding `COc1ccccc1NC(=O)N1C[C@@H]2N[C@H](C1)C2c1ccc(/C=C/c2ccccc2)cc1` (stereo partly specified), the IC50 was 10.7 µM.

Consider `COc1ccccc1C#Cc1ccc2c(c1)[C@H]1[C@H](CCN1C(=O)c1ccc(F)cc1)[C@@H](CO)N2`, for which the IC50 is below 0.5 µM.

Consider `Fc1cccc(-c2ccc(C3[C@H]4CNC[C@@H]3N4Cc3ccccc3F)cc2)c1` (stereo partly specified), for which the IC50 was 60.5 µM.

For the molecule `O=C(Nc1ccc(F)cc1)N1CCCCN2[C@H](CO)[C@@H](c3ccc(-c4cccc(F)c4)cc3)[C@H]2C1`, the IC50 is 92.2 µM.

For the molecule `N#Cc1cccc(-c2ccc(C3[C@H]4CNC[C@@H]3N4Cc3cccc(F)c3)cc2)c1` (stereo partly specified), the concentration for half-maximal inhibition (IC50) is 55.7 µM.

The values above are taken from PubChem BioAssay AID1224920 (Broad Institute, 2016).
